Source: ChEMBL document CHEMBL1201862, “PubChem BioAssay data set” (2004)
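Values below derive from 48-hour exposures of cells grown in 96-well plates, with endpoints linearly interpolated between the two concentrations bracketing the appropriate inhibition level. The concentration for 50% growth inhibition is given as GI50.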 The source made the active and inactive calls. Rule as the data show it: active = GI50 up to about 1.1 µM and inactive = higher.

Columns and labels:
Assay in all cases: DTP human tumour cell line panel, 48 h
[1] = tested on: EKVX
[2] = tested on: UO-31
[3] = tested on: SNB-19
[4] = tested on: SNB-78
[5] = tested on: HOP-62
[6] = tested on: MOLT-4
[7] = tested on: SW-620
[8] = tested on: HOP-18
[9] = tested on: COLO 205
[10] = tested on: NCI-H522
[11] = tested on: U-251
[12] = tested on: SF-268
[13] = tested on: OVCAR-8
[14] = tested on: LOX IMVI
[15] = tested on: DMS-114
[16] = tested on: KM12
[17] = tested on: DMS-273
[18] = tested on: NCI-H460
[19] = tested on: HCT-116
[20] = tested on: OVCAR-4
[21] = tested on: A549
[22] = tested on: OVCAR-5
[23] = tested on: HT-29
[24] = tested on: SNB-75
[25] = tested on: 786-0
[26] = tested on: HOP-92
[27] = tested on: SK-MEL-5
[28] = tested on: CAKI-1
[29] = tested on: M14
[30] = tested on: M19-MEL
[31] = tested on: NCI-H226
[32] = tested on: OVCAR-3
[33] = tested on: ACHN
[34] = tested on: HCT-15
[35] = tested on: SF-295
[36] = tested on: HCC 2998
[37] = tested on: SR
[38] = tested on: SK-MEL-28
[39] = tested on: TK-10
[40] = tested on: HL-60
[41] = tested on: DLD-1
[42] = tested on: UACC-257
[43] = tested on: IGROV-1
[44] = tested on: SN12C
[45] = tested on: RXF 393
[46] = tested on: Malme-3M
[47] = tested on: KM-20L2
[48] = tested on: A498
[49] = tested on: UACC-62
[50] = tested on: RPMI-8226
[51] = tested on: SK-OV-3
[52] = tested on: CCRF-CEM
[53] = tested on: LXFL 529
[54] = tested on: SF-539
[55] = tested on: K562
[56] = tested on: SK-MEL-2
[57] = tested on: XF498
[58] = tested on: NCI-H23

C=CCC12CCC(=O)[C@@]1(C)CC=C(O)C2=O (some centres undefined)
GI50 [1]: > 100 µM (inactive) | GI50 [2]: > 100 µM (inactive) | GI50 [3]: > 100 µM (inactive) | GI50 [4]: > 100 µM (inactive) | GI50 [5]: > 100 µM (inactive) | GI50 [6]: > 100 µM (inactive) | GI50 [7]: > 100 µM (inactive) | GI50 [8]: > 100 µM (inactive) | GI50 [9]: > 100 µM (inactive) | GI50 [10]: > 100 µM (inactive) | GI50 [11]: > 100 µM (inactive) | GI50 [12]: > 100 µM (inactive) | GI50 [13]: > 100 µM (inactive) | GI50 [14]: > 100 µM (inactive) | GI50 [15]: > 100 µM (inactive) | GI50 [16]: > 100 µM (inactive) | GI50 [17]: > 100 µM (inactive) | GI50 [18]: > 100 µM (inactive) | GI50 [19]: > 100 µM (inactive) | GI50 [20]: > 100 µM (inactive) | GI50 [21]: > 100 µM (inactive) | GI50 [22]: > 100 µM (inactive) | GI50 [23]: > 100 µM (inactive) | GI50 [24]: > 100 µM (inactive) | GI50 [25]: > 100 µM (inactive) | GI50 [26]: > 100 µM (inactive) | GI50 [27]: > 100 µM (inactive) | GI50 [28]: > 100 µM (inactive) | GI50 [29]: > 100 µM (inactive) | GI50 [30]: > 100 µM (inactive) | GI50 [31]: > 100 µM (inactive) | GI50 [32]: > 100 µM (inactive) | GI50 [33]: > 100 µM (inactive) | GI50 [34]: > 100 µM | GI50 [35]: > 100 µM (inactive) | GI50 [36]: > 100 µM (inactive) | GI50 [37]: > 100 µM (inactive) | GI50 [38]: > 100 µM (inactive) | GI50 [39]: > 100 µM (inactive) | GI50 [40]: > 100 µM (inactive) | GI50 [41]: > 100 µM (inactive) | GI50 [42]: > 100 µM (inactive) | GI50 [43]: > 100 µM (inactive) | GI50 [44]: > 100 µM (inactive) | GI50 [45]: > 100 µM (inactive) | GI50 [46]: > 100 µM (inactive) | GI50 [47]: > 100 µM (inactive) | GI50 [48]: > 100 µM (inactive) | GI50 [49]: > 100 µM (inactive) | GI50 [50]: > 100 µM (inactive) | GI50 [51]: > 100 µM (inactive) | GI50 [52]: > 100 µM (inactive) | GI50 [53]: > 100 µM (inactive) | GI50 [54]: > 100 µM (inactive)

Cc1ccc(C(=O)O/N=C2/CCCC/C2=C\c2ccccc2)cc1
GI50 [1]: > 100 µM (inactive) | GI50 [2]: 17.7 µM (inactive) | GI50 [3]: > 100 µM (inactive) | GI50 [55]: 19.2 µM (inactive) | GI50 [4]: 15.6 µM (inactive) | GI50 [5]: > 100 µM (inactive) | GI50 [7]: 34 µM (inactive) | GI50 [8]: > 100 µM (inactive) | GI50 [9]: 95.3 µM (inactive) | GI50 [10]: 16.6 µM (inactive) | GI50 [11]: 38.3 µM (inactive) | GI50 [12]: 13.2 µM (inactive) | GI50 [13]: 37.2 µM (inactive) | GI50 [14]: 20.1 µM (inactive) | GI50 [56]: > 100 µM (inactive) | GI50 [57]: 39.4 µM (inactive) | GI50 [16]: 73.6 µM (inactive) | GI50 [17]: 27.7 µM (inactive) | GI50 [18]: > 100 µM (inactive) | GI50 [19]: 16.4 µM (inactive) | GI50 [20]: 36.9 µM (inactive) | GI50 [21]: 19.5 µM (inactive) | GI50 [22]: 81.1 µM (inactive) | GI50 [23]: 43.5 µM (inactive) | GI50 [24]: 33.5 µM (inactive) | GI50 [25]: > 100 µM (inactive) | GI50 [26]: 54.5 µM (inactive) | GI50 [27]: 37.2 µM (inactive) | GI50 [28]: 63.2 µM (inactive) | GI50 [29]: > 100 µM (inactive) | GI50 [30]: 67.9 µM (inactive) | GI50 [31]: > 100 µM (inactive) | GI50 [32]: 38.1 µM (inactive) | GI50 [33]: 27.2 µM (inactive) | GI50 [34]: 32.4 µM | GI50 [35]: 39.2 µM (inactive) | GI50 [36]: > 100 µM (inactive) | GI50 [37]: > 100 µM (inactive) | GI50 [38]: 12.7 µM (inactive) | GI50 [39]: > 100 µM (inactive) | GI50 [40]: 19.7 µM (inactive) | GI50 [41]: 78.5 µM (inactive) | GI50 [42]: > 100 µM (inactive) | GI50 [58]: 29.4 µM (inactive) | GI50 [43]: 42.9 µM (inactive) | GI50 [44]: 80.9 µM (inactive) | GI50 [45]: 38.6 µM (inactive) | GI50 [46]: 14.4 µM (inactive) | GI50 [47]: 83.9 µM (inactive) | GI50 [49]: 41.5 µM (inactive) | GI50 [50]: 77.8 µM (inactive) | GI50 [51]: > 100 µM (inactive) | GI50 [52]: 29.2 µM (inactive) | GI50 [53]: 16.9 µM (inactive) | GI50 [54]: 45.1 µM (inactive)
